“Also recorded” adds a separate entry of the source.
Experiments:
[1] = test system: Npc1nmf164 mice; assay: Efficacy in Npc1nmf164 mouse model of Niemann-Pick type C disease; format: in vivo
Description: Animals—Npc1^nmf164 is a BALB/c strain carry a D1005G (A to G at cDNA bp 3163) mutation in the Npc1 gene 32. […] Homozygous mutants (Npc1^nmf164) along with wild-type littermates (Npc1^+/+), were generated in house by crossing heterozygous mutant (Npc1^+/nmf164) males and females and genotyped as previously described^10. Wild type Balb/c mice were procured from Envigo (Indianapolis, Ind., USA).
Drug injection and organ harvest—The Triple combination formulation (TCF) is a mixture of vorinostat (50 mg/kg), HPBCD (2000 mg/Kg)), PEG 400 (45%) and DMSO (5%). Vorinostat (50 mg/Kg) was made in 5% DMSO and 45% PEG. HPBCD was a 20% (w/v) solution and given dose of 2000 mg/Kg. […] To enable comparative studies with prior regiments, all mice were given two doses of HPBCD at P7 and P15. From P21 onwards, mice received either HPBCD alone or TCF, as indicated. Vo was also initiated at P21. Injections were administered weekly through the intraperitoneal (i.p) route (and the injection volume used was 10 ml/Kg body weight across all treatment groups). For lung histopathology, Npc1^nmf164 mice were analyzed at 100-109 days of age. Long-term safety was assessed for 8-10 months either in Npc^1+/nmf164 or commercially purchased wild type Balb/c mice.

[2] = test system: Npc1nmf164 mice; assay: Foamy macrophages in lungs of Npc1nmf164 mice (H&E); format: in vivo, mouse; conditions: Npc1nmf164 mice at 100 days of age, weekly i.p.
Procedure: H&E stained micrographs showing foamy macrophages (indicated by black arrows) at 100 days of age in the lung of Npc1^+/nmf164 (healthy control) and Npc1^nmf164 (^Npc) mutant mice treated as indicated. Foamy macrophages were abundant in untreated Npc mice. […] Images were taken with 40× objective lens and are representative of 4 mice in each group. Number of mice in each group=4. For quantitation, 10-15 random fields were analyzed per lung section. Untr, Untreated.*p=0.02, TCF vs HPBCD, two-tailed Mann-Whitney test.
Drug injection and organ harvest—The Triple combination formulation (TCF) is a mixture of vorinostat (50 mg/kg), HPBCD (2000 mg/Kg)), PEG 400 (45%) and DMSO (5%). Vorinostat (50 mg/Kg) was made in 5% DMSO and 45% PEG. HPBCD was a 20% (w/v) solution and given dose of 2000 mg/Kg. Detailed methodology on preparing drug solutions have been descried earlier^10. To enable comparative studies with prior regiments, all mice were given two doses of HPBCD at P7 and P15. From P21 onwards, mice received either HPBCD alone or TCF, as indicated. Vo was also initiated at P21. […] For lung histopathology, Npc1^nmf164 mice were analyzed at 100-109 days of age. Long-term safety was assessed for 8-10 months either in Npc^1+/nmf164 or commercially purchased wild type Balb/c mice. […]

[3] = literature, cited from earlier work
[4] = Quantification of Vo in lungs by mass spectrometry; format: in vivo, mouse; conditions: Npc1+/nmf164 mice
Procedure: Npc1^+/nmf164 injected i.p. with Vo or TCF. At indicated times, animals sacrificed, perfused with PBS and Vo concentration in lungs were determined by mass spectrometry. n=5. h, hour. *p=0.02, TCF vs Vo 0.5 h, and **p=0.014 TCF vs Vo, 1 h, two tailed Student's t test.
Quantification of Vo in lungs—Npc1^+/nmf164 mice (age 6-7 weeks) were given intraperitoneal injections of either Vo (50 mg/Kg in 45% PEG and 5% DMSO) or TCF (Vo 50 mg/Kg+HPBCD, 2000 mg/Kg+PEG, 45%+DMSO, 5%). At 30 min and 1 h post injection, mice were asphyxiated with CO2, blood was drawn by cardiac puncture and organs were perfused with 20 ml ice-cold PBS through the ventricle. Harvested lungs were cut into small pieces (4-6 mm2) and flash frozen in liquid nitrogen. The quantification of vorinostat was done by Metabolite Profiling Facility, Bindley Bioscience Center, Purdue University, Ind., USA. The detailed methods are as described earlier^10. Briefly, the tissue was homogenized using a Precelly bead homogenizer system utilizing ceramic CK 14 beads. 2 ng of deuterated internal standard (d5-Vorinostat, Toronto Research Chemicals, Ontario, Canada) was added to lung homogenate prior to liquid extraction with acetonitrile. Prior to analysis, samples were reconstituted in 100 μL of 50% water/50% acetonitrile. An Agilent 1200 Rapid Resolution liquid chromatography (HPLC) system coupled to an Agilent 6460 series triple quadrupole mass spectrometer (MS/MS) was used to analyze vorinostat. The data were obtained in positive electrospray ionization (ESI) mode and quantitated by monitoring the following transitions: for Vorinostat, 265→232 with a collision energy of 5 V and for d5-Vorinostat, 270→237 with collision energy of 5 V.

[5] = test system: inflammatory pain model; conditions: intrathecal; cited from earlier work
[6] = test system: SNI; conditions: intrathecal injection; cited from earlier work
[7] = test system: animal pain models; conditions: systemically applied; cited from earlier work

Structure (SMILES): CC(O)COC[C@H]1O[C@@H]2O[C@H]3[C@H](O)[C@@H](O)[C@@H](O[C@H]4[C@H](O)[C@@H](O)[C@@H](O[C@H]5[C@H](O)[C@@H](O)[C@@H](O[C@H]6[C@H](O)[C@@H](O)[C@@H](O[C@H]7[C@H](O)[C@@H](O)[C@@H](O[C@H]8[C@H](O)[C@@H](O)[C@@H](O[C@H]1[C@H](O)[C@H]2O)O[C@@H]8COCC(C)O)O[C@@H]7COCC(C)O)O[C@@H]6COCC(C)O)O[C@@H]5COCC(C)O)O[C@@H]4COCC(C)O)O[C@@H]3COCC(C)O (stereo partly drawn) [HPBCD, 2-hydroxypropyl-β-cyclodextrin]
- benefit on Npc1nmf164 mouse survival ([1]; 2×HPBCD compared to 1×HPBCD alone): no additional benefit
- accumulation of foamy macrophages in the lungs [2]: abundant macrophage accumulation; also recorded: no effect
- blood brain barrier crossing [3]: does not cross the blood brain barrier
- distribution to lung ([3]; systemic delivery): excluded from lung

Structure (SMILES): O=C(CCCCCCC(=O)Nc1ccccc1)NO [Vo, vorinostat]
- benefit on Npc1nmf164 mouse survival ([1]; Vo in PEG): no benefit
- reduction of Vo lung concentration from 30 min to 60 min ([4]; i.p.): 65-70%
- concentration at 30 min ([4]; mouse, lung, ip, 50 mg/Kg, 30 min post i.p. injection): 3200 ng/g
- concentration at 60 min ([4]; mouse, lung, ip, 50 mg/Kg, 60 min post i.p. injection): 1000 ng/g
- accumulation of foamy macrophages in the lungs [2]: abundant macrophage accumulation; also recorded: no effect
- histone acetylation in the spinal cord dorsal horn [5]: enhanced histone acetylation
- hyperalgesia [5]: reduced hyperalgesia

Structure (SMILES): O=C(O)[C@H]1O[C@@H](Oc2cc3oc(-c4ccccc4)cc(=O)c3c(O)c2O)[C@H](O)[C@@H](O)[C@@H]1O [baicalin]
- histone acetylation [6]: reduces histone acetylation
- pain behavior [6]: reverses pain behavior

Structure (SMILES): COc1cc(/C=C/C(=O)CC(=O)/C=C/c2ccc(O)c(OC)c2)ccc1O [curcumin]
- analgesia [7]: modest analgesia

Structure (SMILES): O=C(/C=C/c1ccc(CN(CCO)CCc2c[nH]c3ccccc23)cc1)NO [dacinostat]
- histone acetylation in the spinal cord dorsal horn [5]: enhanced histone acetylation
- hyperalgesia [5]: reduced hyperalgesia

Structure (SMILES): CC(/C=C/C(=O)NO)=C\[C@@H](C)C(=O)c1ccc(N(C)C)cc1 [trichostatin A]
- histone acetylation in the spinal cord dorsal horn [5]: enhanced histone acetylation
- hyperalgesia [5]: reduced hyperalgesia

Structure (SMILES): CCCC(CCC)C(=O)O [valproic acid]
- analgesia [7]: modest analgesia

Reference: US11219608B2, “Triple combination formulation for treatment of chronic pain” (Northwestern University, priority 2017, dated 2022)
